Results taken from ChEMBL document CHEMBL1127168, “Synthesis and sar study of novel CCK-B antagonists” (Bioorg Med Chem Lett, 1993).

Columns and labels:
[1] = target: T1, Cholecystokinin receptor type A (Rattus norvegicus, UniProt P30551); assay: In vitro inhibition of [125I]- Bolton Hunter CCK-8 to Cholecystokinin type A receptor in the rat pancreas.
T1 sequence (P30551 whole entry): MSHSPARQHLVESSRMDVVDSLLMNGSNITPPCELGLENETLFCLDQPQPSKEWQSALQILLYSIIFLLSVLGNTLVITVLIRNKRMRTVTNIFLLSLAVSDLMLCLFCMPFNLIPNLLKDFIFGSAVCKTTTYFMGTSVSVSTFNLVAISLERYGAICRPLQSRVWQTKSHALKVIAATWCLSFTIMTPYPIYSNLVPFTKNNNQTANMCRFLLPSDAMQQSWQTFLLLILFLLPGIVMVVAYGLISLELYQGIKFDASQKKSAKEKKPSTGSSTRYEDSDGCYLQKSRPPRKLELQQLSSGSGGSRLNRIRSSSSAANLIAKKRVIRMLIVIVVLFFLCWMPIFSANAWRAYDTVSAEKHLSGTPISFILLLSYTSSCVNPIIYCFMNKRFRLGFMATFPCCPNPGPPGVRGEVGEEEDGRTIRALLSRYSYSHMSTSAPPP

[2] = target: T2, Gastrin/cholecystokinin type B receptor (Mus musculus, UniProt P56481); assay: In vitro inhibition of [125I]- Bolton Hunter CCK-8 binding to Cholecystokinin type B receptor in the mouse cerebral cortex.; format: tissue-based
T2 sequence (P56481 whole entry): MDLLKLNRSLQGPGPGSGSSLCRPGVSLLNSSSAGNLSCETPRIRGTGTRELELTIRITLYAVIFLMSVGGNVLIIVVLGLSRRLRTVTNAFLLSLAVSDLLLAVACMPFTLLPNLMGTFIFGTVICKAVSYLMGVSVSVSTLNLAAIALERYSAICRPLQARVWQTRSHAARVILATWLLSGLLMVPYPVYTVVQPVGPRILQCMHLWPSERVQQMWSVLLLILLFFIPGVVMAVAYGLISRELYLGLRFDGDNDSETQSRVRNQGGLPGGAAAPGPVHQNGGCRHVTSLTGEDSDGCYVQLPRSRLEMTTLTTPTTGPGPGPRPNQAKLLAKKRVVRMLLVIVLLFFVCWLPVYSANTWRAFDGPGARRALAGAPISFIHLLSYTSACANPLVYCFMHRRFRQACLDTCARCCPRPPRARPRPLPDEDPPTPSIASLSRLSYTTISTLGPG

[3] = Ratio of inhibition at CCK-A compared to CCK-B receptors.

Row | SMILES | IC50 [1] [nM] | IC50 [2] [nM] | Ratio [3]
1 | CC(Cc1c[nH]c2ccccc12)(NC(=O)OC1[C@H]2C[C@@H]3C[C@@H](C[C@H]1C3)C2)C(=O)N(CCc1ccccc1)CC(=O)O (single isomer, unassigned) | 1080 |  | 
2 | C[C@@](Cc1c[nH]c2ccccc12)(NC(=O)OC1[C@H]2C[C@@H]3C[C@@H](C[C@H]1C3)C2)C(=O)N(CCCCCCC(=O)O)CCc1ccccc1 (some centres undefined) | > 1000 | 348 | > 2.9
3 | COC(=O)CCCCCCN(CCc1ccccc1)C(=O)[C@](C)(Cc1c[nH]c2ccccc12)NC(=O)OC1[C@H]2C[C@@H]3C[C@@H](C[C@H]1C3)C2 (some centres undefined) | 6320 | 177 | 35.7
4 | C[C@@](Cc1c[nH]c2ccccc12)(NC(=O)OC1[C@H]2C[C@@H]3C[C@@H](C[C@H]1C3)C2)C(=O)N(CCc1ccccn1)CC(=O)O (some centres undefined) | 337 | 2.31 | 146
5 | CC(Cc1c[nH]c2ccccc12)(NC(=O)OC1[C@H]2C[C@@H]3C[C@@H](C[C@H]1C3)C2)C(=O)N(CCC(=O)O)CCc1ccccc1 (single isomer, unassigned) | 527 |  | 
6 | C[C@@](Cc1c[nH]c2ccccc12)(NC(=O)OC1[C@H]2C[C@@H]3C[C@@H](C[C@H]1C3)C2)C(=O)N(CCc1ccccc1)CC(=O)O (some centres undefined) | > 1000 |  | 
7 | COC(=O)CN(CCc1ccccc1)C(=O)[C@](C)(Cc1c[nH]c2ccccc12)NC(=O)OC1[C@H]2C[C@@H]3C[C@@H](C[C@H]1C3)C2 (some centres undefined) | 2330 | 532 | 4.4
8 | COC(=O)CN(CCc1ccccn1)C(=O)C(C)(Cc1c[nH]c2ccccc12)NC(=O)OC1[C@H]2C[C@@H]3C[C@@H](C[C@H]1C3)C2 (single isomer, unassigned) | 2520 | 90.9 | 27.7
9 | C[C@@](Cc1c[nH]c2ccccc12)(NC(=O)OC1C2CC3CC(C2)CC1C3)C(=O)N[C@@H](CC(=O)O)Cc1ccccc1 (some centres undefined) | 25.5 |  | 
10 | CC(Cc1c[nH]c2ccccc12)(NC(=O)OC1[C@H]2C[C@@H]3C[C@@H](C[C@H]1C3)C2)C(=O)N(CCCC(=O)O)CCc1ccccc1 (single isomer, unassigned) | 564 | 80.2 | 7
11 | C[C@@](Cc1c[nH]c2ccccc12)(NC(=O)OC1[C@H]2C[C@@H]3C[C@@H](C[C@H]1C3)C2)C(=O)NCCc1ccccn1 (some centres undefined) | 1850 | 15.5 | 119
12 | COC(=O)CCN(CCc1ccccc1)C(=O)C(C)(Cc1c[nH]c2ccccc12)NC(=O)OC1[C@H]2C[C@@H]3C[C@@H](C[C@H]1C3)C2 (single isomer, unassigned) | 1980 | 113 | 17.5
13 | C[C@@](Cc1c[nH]c2ccccc12)(NC(=O)OC1[C@H]2C[C@@H]3C[C@@H](C[C@H]1C3)C2)C(=O)N(CCC(=O)O)CCc1ccccc1 (some centres undefined) | 672 |  | 
